From patent US20250179176A1, “ANTI-TIGIT ANTIBODIES AND USES OF THE SAME” (ARCUS BIOSCIENCES, INC., priority 2022, published 2025)

B1: domvanalimab: anti-TIGIT antibody with engineered IgG1 Fc, reduced FcγR binding; heavy chain SEQ ID NO: 12, light chain SEQ ID NO: 13 (antibody)
heavy: EVQLVESGGGLVQPGGSLRLSCAASGFTFSNFGMHWVRQAPGKGLEWVAFISSGSSSIYYADTVKGRFTISRDNAKNSLYLQMNSLRAEDTAVYYCARMRLDYYAMDYWGQGTMVTVSSASTKGPSVFPLAPSSKSTSGGTAALGCLVKDYFPEPVTVSWNSGALTSGVHTFPAVLQSSGLYSLSSVVTVPSSSLGTQTYICNVNHKPSNTKVDKKVEPKSCDKTHTCPPCPAPEAAGGPSVFLFPPKPKDTLMISRTPEVTCWVDVSHEDPEVKFNWYVDGVEVHNAKTKPREEQYNSTYRWSVLTVLHQDWLNGKEYKCKVSNKALPAPIEKTISKAKGQPREPQVYTLPPSRDELTKNQVSLTCLVKGFYPSDIAVEWESNGQPENNYKTTPPVLDSDGSFFLYSKLTVDKSRWQQGNVFSCSVMHEALHNHYTQKSLSLSPGK
light: DIQMTQSPSSLSASVGDRVTITCRASKSISKYLAWYQQKPGKAPKLLIYSGSTLQSGVPSRFSGSGSGTDFTLTISSLQPEDFATYYCQQHNEYPWTFGGGTKVEIKRTVAAPSVFIFPPSDEQLKSGTASWCLLNNFYPREAKVQWKVDNALQSGNSQESVTEQDSKDSTYSLSSTLTLSKADYEKHKVYACEVTHQGLSSPVTKSFNRGEC

How the values were obtained:
[1] = system: metastatic (Stage IV) squamous or non-squamous NSCLC; assay: Phase 2 study in front-line NSCLC (ARC-7), efficacy; format: in vivo, human
Description: Participants were randomized 1:1:1 across the three study arms and treated until disease progression or loss of clinical benefit. […] Patients in the zimberelimab monotherapy arm with confirmed progression had the option to cross over to the triplet arm. Co-primary endpoints were objective response rate (ORR) and progression-free survival (PFS). Secondary endpoints included safety, duration of response and disease control rates. Additional assessments of response/on-treatment effects may include measures of immune cell activation, immune cell suppression, immune cell proliferation, T cell receptor dynamics, and/or increases in memory and antigen experienced T cells in periphery or tumor microenvironment, as well as molecular response assessment by ctDNA dynamics and/or changes in tumor cell markers or gene expression.
Further data were obtained from an interim analysis with a data cutoff of Aug. 31, 2022.

[2] = system: Jurkat cell line stably overexpressing human TIGIT; assay: CDC assay with human complement; format: cell-based; details: increasing concentrations up to 33 nM
Description: Briefly, 50,000 Jurkat-TIGIT cells in RPMI 1640 medium (Invitrogen) containing 10% fetal bovine serum (FBS) were seeded into a 96-well round bottom plates (Nunc). Test antibodies were added starting at a top concentration of 50 μg/ml followed by a three-fold dilution series and allowed to incubate with cells for 1 hour at 37° C. in a 5% CO2 incubator. After this 1-hour incubation, human complement was added and allowed to incubate for an additional 3 hours at 37° C. in a 5% CO2 incubator. Following the completion of this 3-hour incubation, […] of propidium iodide (ThermoFisher) was added and samples were analyzed by flow cytometry (BD FACSCalibur) to determine the percentages of propidium iodide positivity as a readout for cell death.

[3] = efficacy population, later cutoff

| Molecule | patients with partial response remaining on treatment ([1]; ITT-13, cutoff Aug. 31, 2022) | patients with stable disease remaining on treatment ([1]; ITT-13, cutoff Aug. 31, 2022) | 6-month progression-free survival rate ([1]; Kaplan Meier, ITT-13) | median PFS ([1]; Kaplan Meier, ITT-13) | 6-mo PFS % (95% CI) [1, 3] | CORR (confirmed Objective Response Rate, per RECIST v1.1) [1, 3] | Complete Response [1, 3] | Not Evaluable [1, 3] | Partial Response [1, 3] | Progressive Disease [1, 3] | Stable Disease [1, 3] | median PFS [1, 3] | complement-dependent cytotoxicity [2] |
| --- | --- | --- | --- | --- | --- | --- | --- | --- | --- | --- | --- | --- | --- |
| zimberelimab: antagonistic PD-1 antibody, immune checkpoint inhibitor | 5 n | 3 n | 43% | 5.4 months | 43 (27, 59) % | 12 (27) n (%) | 0 (0) n (%) | 7 (16) n (%) | 12 (27) n (%) | 11 (25) n (%) | 14 (32) n (%) | 5.4 mo | – |
| B1 | – | – | – | – | – | – | – | – | – | – | – | – | No cytotoxicity |
